# Experimental data: patent publication US9714244B2, “Substituted pyrido[4,3-d]pyrimidines as Wee-1 inhibitors” (ALMAC DISCOVERY LIMITED, priority 2013, dated 2017)
# Assays:
# PRKACA (PKA) = PRKACA (PKA) (Homo sapiens (Human), UniProt P17612); assay: SelectScreen Kinase Profiling: PRKACA; type: biochemical; conditions: 300-350 nM
# Text: (§1) Table 2 below highlights the selectivity of a representative compound of the invention against a panel of 50 kinases (assessed using the Invitrogen SelectScreen® Kinase Profiling Service).
# RPS6KB1 (p70S6K) = RPS6KB1 (p70S6K) (Homo sapiens (Human), UniProt P23443); assay: SelectScreen Kinase Profiling: RPS6KB1; type: biochemical; conditions: 300-350 nM
# Text: as §1
# IRAK4 = IRAK4 (Homo sapiens (Human), UniProt Q9NWZ3); assay: SelectScreen Kinase Profiling: IRAK4; type: biochemical; conditions: 300-350 nM
# Sequence of IRAK4 (Q9NWZ3 whole entry): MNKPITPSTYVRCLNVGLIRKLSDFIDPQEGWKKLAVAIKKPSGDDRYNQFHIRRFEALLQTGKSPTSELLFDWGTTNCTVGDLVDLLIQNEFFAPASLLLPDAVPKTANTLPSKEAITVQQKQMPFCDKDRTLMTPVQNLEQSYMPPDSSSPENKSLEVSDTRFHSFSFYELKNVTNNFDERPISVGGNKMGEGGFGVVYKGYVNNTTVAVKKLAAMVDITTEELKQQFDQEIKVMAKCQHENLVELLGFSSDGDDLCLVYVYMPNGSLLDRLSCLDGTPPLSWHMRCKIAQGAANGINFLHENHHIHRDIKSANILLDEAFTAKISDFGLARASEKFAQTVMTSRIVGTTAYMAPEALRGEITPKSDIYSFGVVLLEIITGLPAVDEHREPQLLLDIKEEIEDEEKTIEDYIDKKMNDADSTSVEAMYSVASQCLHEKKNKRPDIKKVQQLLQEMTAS
# Text: as §1
# MAPK1 (ERK2) = MAPK1 (ERK2) (Homo sapiens (Human), UniProt P28482); assay: SelectScreen Kinase Profiling: MAPK1; type: biochemical; conditions: 300-350 nM
# Text: as §1
# EPHA2 = EPHA2 (Homo sapiens (Human), UniProt P29317); assay: SelectScreen Kinase Profiling: EPHA2; type: biochemical; conditions: 300-350 nM
# Text: as §1
# RPS6KA3 (RSK2) = RPS6KA3 (RSK2) (Homo sapiens (Human), UniProt P51812); assay: SelectScreen Kinase Profiling: RPS6KA3; type: biochemical; conditions: 300-350 nM
# Wee-1 kinase = Wee-1 kinase (Homo sapiens (Human), UniProt P30291); assay: Measurement of Wee-1 kinase activity (ADP-Glo); type: biochemical; conditions: read-out: Wee-1 IC50 activity
# DYRK3 = DYRK3 (Homo sapiens (Human), UniProt O43781); assay: SelectScreen Kinase Profiling: DYRK3; type: biochemical; conditions: 300-350 nM
# Sequence of DYRK3 (O43781 whole entry): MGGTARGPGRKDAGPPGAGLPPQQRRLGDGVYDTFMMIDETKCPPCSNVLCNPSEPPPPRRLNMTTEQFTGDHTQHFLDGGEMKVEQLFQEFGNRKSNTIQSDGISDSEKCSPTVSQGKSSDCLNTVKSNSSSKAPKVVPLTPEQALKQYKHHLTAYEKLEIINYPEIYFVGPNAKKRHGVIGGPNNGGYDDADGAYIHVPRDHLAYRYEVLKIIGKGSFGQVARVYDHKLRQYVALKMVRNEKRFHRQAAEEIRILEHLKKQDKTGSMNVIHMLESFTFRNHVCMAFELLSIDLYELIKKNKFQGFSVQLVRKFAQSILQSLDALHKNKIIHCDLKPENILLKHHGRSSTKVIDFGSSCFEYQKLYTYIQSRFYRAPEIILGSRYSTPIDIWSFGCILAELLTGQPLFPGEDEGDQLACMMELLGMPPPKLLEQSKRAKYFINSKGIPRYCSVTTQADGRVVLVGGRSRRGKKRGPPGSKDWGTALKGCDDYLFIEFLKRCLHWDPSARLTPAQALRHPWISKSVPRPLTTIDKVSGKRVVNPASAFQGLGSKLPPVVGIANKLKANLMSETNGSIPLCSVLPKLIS
# Text: as §1
# CSNK2A1 (CK2 alpha 1) = CSNK2A1 (CK2 alpha 1) (Homo sapiens (Human), UniProt P68400); assay: SelectScreen Kinase Profiling: CSNK2A1; type: biochemical; conditions: 300-350 nM
# Text: as §1
# NEK1 = NEK1 (Homo sapiens (Human), UniProt Q96PY6); assay: SelectScreen Kinase Profiling: NEK1; type: biochemical; conditions: 300-350 nM
# Text: as §1
# CHEK1 (CHK1) = CHEK1 (CHK1) (Homo sapiens (Human), UniProt O14757); assay: SelectScreen Kinase Profiling: CHEK1; type: biochemical; conditions: 300-350 nM
# Text: as §1
# MAPKAPK2 = MAPKAPK2 (Homo sapiens (Human), UniProt P49137); assay: SelectScreen Kinase Profiling: MAPKAPK2; type: biochemical; conditions: 300-350 nM
# Text: as §1
# MARK2 = MARK2 (Homo sapiens (Human), UniProt Q7KZI7); assay: SelectScreen Kinase Profiling: MARK2; type: biochemical; conditions: 300-350 nM
# Sequence of MARK2 (Q7KZI7 whole entry): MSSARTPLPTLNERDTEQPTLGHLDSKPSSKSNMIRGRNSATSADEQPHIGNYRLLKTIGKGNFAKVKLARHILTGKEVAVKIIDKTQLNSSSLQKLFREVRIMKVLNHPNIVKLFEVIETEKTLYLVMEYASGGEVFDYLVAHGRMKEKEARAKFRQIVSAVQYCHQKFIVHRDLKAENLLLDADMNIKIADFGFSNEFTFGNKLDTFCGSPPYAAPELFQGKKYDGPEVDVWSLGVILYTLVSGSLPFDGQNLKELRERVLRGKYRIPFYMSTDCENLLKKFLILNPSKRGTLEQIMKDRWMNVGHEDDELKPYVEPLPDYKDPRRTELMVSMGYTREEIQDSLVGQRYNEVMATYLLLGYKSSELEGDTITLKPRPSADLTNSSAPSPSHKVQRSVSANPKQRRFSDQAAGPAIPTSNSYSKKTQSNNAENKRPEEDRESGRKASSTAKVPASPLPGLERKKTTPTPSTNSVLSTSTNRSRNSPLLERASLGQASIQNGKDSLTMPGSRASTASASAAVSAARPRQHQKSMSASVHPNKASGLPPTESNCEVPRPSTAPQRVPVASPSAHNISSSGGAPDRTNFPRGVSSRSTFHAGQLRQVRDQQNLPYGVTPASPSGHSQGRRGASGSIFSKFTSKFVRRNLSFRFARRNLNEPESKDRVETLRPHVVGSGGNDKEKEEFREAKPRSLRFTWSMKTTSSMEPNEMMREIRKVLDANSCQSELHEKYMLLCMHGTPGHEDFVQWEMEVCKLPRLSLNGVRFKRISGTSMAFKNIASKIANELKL
# Text: as §1
# ACVR1B (ALK4) = ACVR1B (ALK4) (Homo sapiens (Human), UniProt P36896); assay: SelectScreen Kinase Profiling: ACVR1B; type: biochemical; conditions: 300-350 nM
# Text: as §1
# EGFR (ErbB1) = EGFR (ErbB1) (Homo sapiens (Human), UniProt P00533); assay: SelectScreen Kinase Profiling: EGFR; type: biochemical; conditions: 300-350 nM
# PAK4 = PAK4 (Homo sapiens (Human), UniProt O96013); assay: SelectScreen Kinase Profiling: PAK4; type: biochemical; conditions: 300-350 nM
# Text: as §1
# INSR = INSR (Homo sapiens (Human), UniProt P06213); assay: SelectScreen Kinase Profiling: INSR; type: biochemical; conditions: 300-350 nM
# Sequence of INSR (P06213 28-1382): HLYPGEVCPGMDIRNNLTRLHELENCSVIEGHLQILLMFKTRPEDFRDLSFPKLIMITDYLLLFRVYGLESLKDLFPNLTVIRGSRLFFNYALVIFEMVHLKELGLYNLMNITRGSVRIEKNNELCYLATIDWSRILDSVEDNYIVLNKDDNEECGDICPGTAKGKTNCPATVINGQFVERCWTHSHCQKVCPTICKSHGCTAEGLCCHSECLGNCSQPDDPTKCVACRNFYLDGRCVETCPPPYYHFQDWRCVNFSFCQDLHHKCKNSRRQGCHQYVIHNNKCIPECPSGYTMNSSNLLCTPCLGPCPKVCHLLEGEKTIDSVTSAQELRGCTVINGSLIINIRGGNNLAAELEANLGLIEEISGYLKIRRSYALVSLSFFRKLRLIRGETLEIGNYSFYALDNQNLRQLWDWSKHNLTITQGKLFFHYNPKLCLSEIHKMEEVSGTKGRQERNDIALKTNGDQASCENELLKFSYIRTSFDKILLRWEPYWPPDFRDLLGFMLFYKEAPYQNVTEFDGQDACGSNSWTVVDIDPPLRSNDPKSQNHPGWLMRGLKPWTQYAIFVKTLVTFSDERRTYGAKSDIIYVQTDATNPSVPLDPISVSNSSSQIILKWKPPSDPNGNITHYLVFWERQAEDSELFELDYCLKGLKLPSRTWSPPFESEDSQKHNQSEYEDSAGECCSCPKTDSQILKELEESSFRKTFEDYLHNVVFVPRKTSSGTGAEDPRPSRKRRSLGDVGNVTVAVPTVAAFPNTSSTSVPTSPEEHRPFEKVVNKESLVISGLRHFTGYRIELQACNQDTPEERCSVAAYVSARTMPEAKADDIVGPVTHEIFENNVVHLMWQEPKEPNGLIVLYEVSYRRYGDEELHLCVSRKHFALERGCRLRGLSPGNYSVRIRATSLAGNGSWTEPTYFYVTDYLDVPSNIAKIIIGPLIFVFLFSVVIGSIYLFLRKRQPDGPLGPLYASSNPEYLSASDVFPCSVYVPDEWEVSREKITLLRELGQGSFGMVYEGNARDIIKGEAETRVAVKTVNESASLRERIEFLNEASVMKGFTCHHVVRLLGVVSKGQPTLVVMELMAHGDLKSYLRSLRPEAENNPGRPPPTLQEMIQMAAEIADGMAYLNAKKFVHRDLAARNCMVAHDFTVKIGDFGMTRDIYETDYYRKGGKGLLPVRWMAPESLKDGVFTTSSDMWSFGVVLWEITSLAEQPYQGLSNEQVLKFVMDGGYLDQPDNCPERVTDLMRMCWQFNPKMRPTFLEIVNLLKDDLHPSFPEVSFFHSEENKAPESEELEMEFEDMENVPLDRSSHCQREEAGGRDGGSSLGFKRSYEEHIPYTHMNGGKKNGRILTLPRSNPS
# Text: as §1
# [1] = CLint estimates using human liver microsomes; type: in vitro ADME; conditions: pH 7.4, read-out: HLM activity (HLM CLint)
# PRKCB1 (PKC beta I) = PRKCB1 (PKC beta I) (Homo sapiens (Human), UniProt P05771); assay: SelectScreen Kinase Profiling: PRKCB1; type: biochemical; conditions: 300-350 nM
# Sequence of PRKCB1 (PKC beta I) (P05771 whole entry): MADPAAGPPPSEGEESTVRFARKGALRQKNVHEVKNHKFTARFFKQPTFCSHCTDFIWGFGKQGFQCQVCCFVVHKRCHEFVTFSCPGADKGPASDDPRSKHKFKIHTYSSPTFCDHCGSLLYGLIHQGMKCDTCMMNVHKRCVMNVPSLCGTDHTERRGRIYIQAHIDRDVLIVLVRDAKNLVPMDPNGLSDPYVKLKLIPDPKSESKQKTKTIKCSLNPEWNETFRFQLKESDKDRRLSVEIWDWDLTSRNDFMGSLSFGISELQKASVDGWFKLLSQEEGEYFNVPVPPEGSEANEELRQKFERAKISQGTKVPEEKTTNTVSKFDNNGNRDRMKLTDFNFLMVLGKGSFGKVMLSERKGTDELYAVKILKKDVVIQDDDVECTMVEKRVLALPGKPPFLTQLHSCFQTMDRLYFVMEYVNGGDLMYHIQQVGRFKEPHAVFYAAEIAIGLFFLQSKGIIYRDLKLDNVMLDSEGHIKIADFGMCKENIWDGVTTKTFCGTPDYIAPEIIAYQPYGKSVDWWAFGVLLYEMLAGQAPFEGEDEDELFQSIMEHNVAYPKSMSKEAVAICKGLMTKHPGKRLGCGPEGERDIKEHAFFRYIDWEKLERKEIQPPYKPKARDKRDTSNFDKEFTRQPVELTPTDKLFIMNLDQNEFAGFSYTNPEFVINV
# Text: as §1
# FRAP1 (mTOR) = FRAP1 (mTOR) (Homo sapiens (Human), UniProt P42345); assay: SelectScreen Kinase Profiling: FRAP1; type: biochemical; conditions: 300-350 nM
# Text: as §1
# BTK = BTK (Homo sapiens (Human), UniProt Q06187); assay: SelectScreen Kinase Profiling: BTK; type: biochemical; conditions: 300-350 nM
# Text: as §1
# JAK3 = JAK3 (Homo sapiens (Human), UniProt P52333); assay: SelectScreen Kinase Profiling: JAK3; type: biochemical; conditions: 300-350 nM
# Sequence of JAK3 (P52333 whole entry): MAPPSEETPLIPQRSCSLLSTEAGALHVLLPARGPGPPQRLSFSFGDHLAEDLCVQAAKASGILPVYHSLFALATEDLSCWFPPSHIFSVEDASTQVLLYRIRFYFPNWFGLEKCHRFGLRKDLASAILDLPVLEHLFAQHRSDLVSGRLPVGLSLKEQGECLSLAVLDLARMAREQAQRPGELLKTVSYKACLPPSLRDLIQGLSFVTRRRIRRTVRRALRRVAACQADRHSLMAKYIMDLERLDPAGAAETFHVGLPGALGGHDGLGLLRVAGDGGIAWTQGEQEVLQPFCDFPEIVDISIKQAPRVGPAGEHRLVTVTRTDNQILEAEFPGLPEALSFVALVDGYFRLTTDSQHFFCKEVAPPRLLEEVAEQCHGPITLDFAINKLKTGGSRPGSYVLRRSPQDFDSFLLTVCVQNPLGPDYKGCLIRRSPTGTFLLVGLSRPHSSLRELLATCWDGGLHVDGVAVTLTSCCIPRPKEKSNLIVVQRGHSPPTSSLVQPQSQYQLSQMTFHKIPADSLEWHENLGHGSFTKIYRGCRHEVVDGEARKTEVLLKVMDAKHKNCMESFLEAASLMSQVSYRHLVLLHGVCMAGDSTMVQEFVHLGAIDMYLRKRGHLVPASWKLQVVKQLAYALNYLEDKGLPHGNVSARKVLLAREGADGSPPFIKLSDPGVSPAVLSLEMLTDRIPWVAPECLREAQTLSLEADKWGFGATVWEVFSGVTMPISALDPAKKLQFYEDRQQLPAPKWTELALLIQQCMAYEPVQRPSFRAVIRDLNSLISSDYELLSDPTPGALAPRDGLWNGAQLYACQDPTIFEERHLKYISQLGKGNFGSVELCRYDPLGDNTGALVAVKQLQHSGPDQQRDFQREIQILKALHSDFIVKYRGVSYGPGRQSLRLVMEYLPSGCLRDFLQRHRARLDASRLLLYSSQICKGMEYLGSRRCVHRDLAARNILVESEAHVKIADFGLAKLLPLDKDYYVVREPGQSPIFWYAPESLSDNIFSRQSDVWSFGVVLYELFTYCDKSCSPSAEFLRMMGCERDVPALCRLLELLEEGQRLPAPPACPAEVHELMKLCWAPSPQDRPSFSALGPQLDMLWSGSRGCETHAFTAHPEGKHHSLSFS
# Text: as §1
# AKT1 (PKB alpha) = AKT1 (PKB alpha) (Homo sapiens (Human), UniProt P31749); assay: SelectScreen Kinase Profiling: AKT1; type: biochemical; conditions: 300-350 nM
# Text: as §1
# MAP2K1 (MEK1) = MAP2K1 (MEK1) (Homo sapiens (Human), UniProt Q02750); assay: SelectScreen Kinase Profiling: MAP2K1; type: biochemical; conditions: 300-350 nM
# Text: as §1
compound,measurement,setting,value
"O=c1c2cnc(Nc3ccc(N4CCNCC4)cc3)nc2ccn1-c1c(Cl)cccc1Cl [Example 1, 6-(2,6-Dichlorophenyl)-2-((4-(piperazin-1-yl)phenyl)amino)pyrido[4,3-d]pyrimidin-5(6H)-one]",Inhibition PRKACA (PKA),PRKACA (PKA),− (Inhibition <75% @ 300-350 nM)
same,Inhibition RPS6KB1 (p70S6K),RPS6KB1 (p70S6K),− (Inhibition <75% @ 300-350 nM)
same,Inhibition IRAK4,IRAK4,− (Inhibition <75% @ 300-350 nM)
same,Inhibition MAPK1 (ERK2),MAPK1 (ERK2),− (Inhibition <75% @ 300-350 nM)
same,Inhibition EPHA2,EPHA2,− (Inhibition <75% @ 300-350 nM)
same,Inhibition RPS6KA3 (RSK2),RPS6KA3 (RSK2),− (Inhibition <75% @ 300-350 nM)
same,IC50,Wee-1 kinase,10 to 200 nM
same,Inhibition DYRK3,DYRK3,− (Inhibition <75% @ 300-350 nM)
same,Inhibition CSNK2A1 (CK2 alpha 1),CSNK2A1 (CK2 alpha 1),− (Inhibition <75% @ 300-350 nM)
same,Inhibition NEK1,NEK1,− (Inhibition <75% @ 300-350 nM)
same,Inhibition CHEK1 (CHK1),CHEK1 (CHK1),− (Inhibition <75% @ 300-350 nM)
same,Inhibition MAPKAPK2,MAPKAPK2,− (Inhibition <75% @ 300-350 nM)
same,Inhibition MARK2,MARK2,− (Inhibition <75% @ 300-350 nM)
same,Inhibition ACVR1B (ALK4),ACVR1B (ALK4),− (Inhibition <75% @ 300-350 nM)
same,Inhibition EGFR (ErbB1),EGFR (ErbB1),− (Inhibition <75% @ 300-350 nM)
same,Inhibition PAK4,PAK4,− (Inhibition <75% @ 300-350 nM)
same,Inhibition INSR,INSR,− (Inhibition <75% @ 300-350 nM)
same,microsomal CLint at 1 μM,[1],≤ 20 µL/min/mg
same,Inhibition PRKCB1 (PKC beta I),PRKCB1 (PKC beta I),− (Inhibition <75% @ 300-350 nM)
same,Inhibition FRAP1 (mTOR),FRAP1 (mTOR),− (Inhibition <75% @ 300-350 nM)
same,Inhibition BTK,BTK,− (Inhibition <75% @ 300-350 nM)
same,Inhibition JAK3,JAK3,− (Inhibition <75% @ 300-350 nM)
same,Inhibition AKT1 (PKB alpha),AKT1 (PKB alpha),− (Inhibition <75% @ 300-350 nM)
same,Inhibition MAP2K1 (MEK1),MAP2K1 (MEK1),− (Inhibition <75% @ 300-350 nM)
